The conditions of series [1]: cited from earlier work.
Series [2] is described as follows: pH value of the aqueous solution with or without HSA. In kind it is physicochemical. The following applies: about 25° C. How it is done: 245.3 mg of fosaprepitant dimeglumine and 0.28 mg of palonosetron hydrochloride were dissolved in methanol, and then methanol was removed from the solution to give a white solid.
The nature of series [3]: Stability of fosaprepitant in a human serum albumin (HSA) solution, visual clarity. It counts as physicochemical. The following applies: for appearance of solution initially: 25° C.; for appearance of solution over time: after 1, 2, 3, 4, 6, 8 and 24 hours at 25° C. On the procedure:
To 3 different vials containing 25 mg of fosaprepitant dimeglumine each were added 1 ml of 10% HSA solution (w/v), 1 ml of 5% HSA solution (w/v), and 1 ml of 2% HSA solution (w/v), respectively, at 25° C.

The mark [4] stands for this setting: 25 mg in 1 ml of 2% HSA solution (w/v).
[5] abbreviates: 25 mg in 1 ml of 5% HSA solution (w/v).
[6] abbreviates: 25 mg in 1 ml of 10% HSA solution (w/v).

“Also recorded” adds a separate entry of the source.

Take `C[C@@H](O[C@H]1OCCN(Cc2n[nH]c(=O)[nH]2)[C@H]1c1ccc(F)cc1)c1cc(C(F)(F)F)cc(C(F)(F)F)c1` [Aprepitant, aprepitant]: the solubility in acetonitrile result in series [1] (acetonitrile) is reported as “slightly soluble”. Also, in series [1] (ethanol), the solubility in ethanol result is “sparingly soluble”. Moreover, the “solubility in isopropyl acetate” value in series [1] (isopropyl acetate) is “sparingly soluble”. Besides, the solubility in water entry in series [1] is “practicallyinsoluble; also recorded: insoluble”.

Take `C[C@@H](O[C@H]1OCCN(Cc2nn(P(=O)(O)O)c(=O)[nH]2)[C@H]1c1ccc(F)cc1)c1cc(C(F)(F)F)cc(C(F)(F)F)c1` [fosaprepitant dimeglumine]: the “pH value of the clear aqueous solution” value in series [2] (24.5 mg in 15 ml of 0.9% saline solution) amounted to 7.70; in series [2] (24.5 mg in 15 ml of HSA solution (0.5 ml of 20% HSA + 14.5 ml of 0.9% saline)) it was 7.15. Moreover, the “appearance of solution initially” value in series [3] (setting [4]), in series [3] (setting [5]) and in series [3] (setting [6]) was “clear aqueous solution” each time. For the same compound, the “appearance of solution over time” value in series [3] (setting [4]), in series [3] (setting [5]) and in series [3] (setting [6]) was “stayed clear” in each case.

As to `C[C@@H](O[C@H]1OCCN(Cc2nc(O)n(P(=O)(O)O)n2)[C@H]1c1ccc(F)cc1)c1cc(C(F)(F)F)cc(C(F)(F)F)c1` [fosaprepitant], the solubility in water result in series [1] is reported as “soluble”.
